Laboratory results: patent publication US20110065712A1, “TRICYCLIC COMPOUNDS AND PHARMACEUTICAL USES THEREOF” (CYLENE PHARMACEUTICALS , INC., priority 2009, published 2011)
pIC50: −log10 of the molar value.

Tests used:
[1] = target: recombinant Pim-1 (Homo sapiens, UniProt P11309); assay: Pim-1 assay (33P-ATP, filter plate); format: biochemical; conditions: read-out: PIM1: IC50
Method: The following procedure was used to assay the Pim-1 kinase activity of compounds of the invention. Other methods for assaying Pim-1 and other Pim kinases, as well as methods to assay for activity against the various kinases disclosed herein are known in the art.
In a final reaction volume of 50 ul, recombinant Pim-1 (1 ng) was incubated with 12 mM MOPS pH 7.0, 0.4 mM EDTA, glycerol 1%, brij 35 0.002%, 2-mercaptoethanol 0.02%, BSA 0.2 mg/ml, 100 uM KKRNRTLTK, 10 mM MgAcetate, 15 uM ATP, [γ-^33P-ATP] (specific activity approx. […]), DMSO 4% and test inhibitor compound at the required concentration. The reaction was initiated by the addition of the magnesium ATP mixture. After 40 min incubation at 23° C., the reactions were quenched by the addition of 100 ul 0.75% Phosphoric acid, and the labeled peptide collected by filtration through a phosphocellulose filter plate. The plate was washed 4 times with 0.075% phosphoric acid (100 ul per well) and then, after the addition of scintillation fluid (20 ul per well), the counts were measured by a scintillation counter.

[2] = target: recombinant human Pim-2 (Homo sapiens, UniProt Q9P1W9); assay: PIM-2 assay (33P-ATP, filter plate); format: biochemical; conditions: read-out: PIM2: IC50
recombinant human Pim-2, sequence (Q9P1W9 whole entry): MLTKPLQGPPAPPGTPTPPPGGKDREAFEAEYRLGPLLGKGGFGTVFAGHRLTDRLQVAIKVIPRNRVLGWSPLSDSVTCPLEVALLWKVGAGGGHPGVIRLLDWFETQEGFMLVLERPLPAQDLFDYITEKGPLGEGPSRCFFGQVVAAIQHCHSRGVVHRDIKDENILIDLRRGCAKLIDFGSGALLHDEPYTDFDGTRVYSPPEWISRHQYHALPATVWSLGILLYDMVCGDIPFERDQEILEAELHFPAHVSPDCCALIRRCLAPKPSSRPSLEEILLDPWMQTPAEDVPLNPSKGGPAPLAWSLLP
Method: Test compounds dissolved and diluted in DMSO (2 μl) were added to a reaction mixture comprising 10 μl of 5× Reaction Buffer (40 mM MOPS pH 7.0, 5 mM EDTA), 10 μl of recombinant human Pim-2 solution (4 ng Pim-2 dissolved in dilution buffer (20 mM MOPS pH 7.0; EDTA 1 mM; 5% Glycerol; 0.01% Brij 35; […]; […] 2-mercaptoethanol; 1 mg/ml BSA)) and 8 ul of water. Reactions were initiated by the addition of 10 ul of ATP Solution (49% (15 mM MgCl2; 75 uM ATP) 1% ([γ-^33P]ATP: Stock 1mCi/1000; 3000Ci/mmol (Perkin Elmer)) and 10 ul of substrate peptide solution (RSRSSYPAGT, dissolved in water at a concentration of 1 mM), Reactions were maintained for 10 min at 30° C. The reactions were quenched with 100 ul of 0.75% phosphoric acid, then transferred to and filtered through a Phosphocellulose filter plate (Millipore, MSPH-N6B-50). After washing each well 4 times with 0.75% phosphoric acid, scintillation fluid (20 uL) was added to each well and the residual radioactivity was measured using a Wallac […] counter.

recombinant Pim-1, sequence (P11309 whole entry): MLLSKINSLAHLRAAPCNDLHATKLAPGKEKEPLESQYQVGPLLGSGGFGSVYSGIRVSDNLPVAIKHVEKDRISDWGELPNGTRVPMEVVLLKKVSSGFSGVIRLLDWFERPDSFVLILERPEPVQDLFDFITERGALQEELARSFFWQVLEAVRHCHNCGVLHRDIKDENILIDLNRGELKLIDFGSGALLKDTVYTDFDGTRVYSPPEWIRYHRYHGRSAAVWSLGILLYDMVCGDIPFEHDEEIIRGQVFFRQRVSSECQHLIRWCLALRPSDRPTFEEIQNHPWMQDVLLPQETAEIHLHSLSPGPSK

pIC50 [1]: > 6.00
pIC50 [2]: > 6.00
Compound: NC(=O)c1cnn2c1nc(Nc1ccccc1Cl)c1ccccc12 [Compound B, 5-(2-chlorophenylamino)pyrazolo[1,5-a]quinazoline-3-carboxamide]
